Laboratory results as given in US12599672B2, “KRAS proteolysis targeting chimeras” (PAQ Therapeutics Inc., priority 2023, dated 2026).

Legend:
Assay type in all cases: cell-based
[1] = target: T1, KRAS G12V (Homo sapiens, UniProt P01116, G12V); assay: KRAS G12V HiBit assay; conditions: SW620-KRAS (G12V)-HiBit-KI cells, compound treatment for 24 hours, class symbols
T1 construct: SW620-KRAS (G12V)-HiBit-KI cell (Pharmaron); host or cells: SW620-KRAS (G12V)-HiBit-KI cells (HiBiT knock-in at the endogenous KRAS locus)
T1 sequence (P01116 1-188 isoform P01116-2 G12V): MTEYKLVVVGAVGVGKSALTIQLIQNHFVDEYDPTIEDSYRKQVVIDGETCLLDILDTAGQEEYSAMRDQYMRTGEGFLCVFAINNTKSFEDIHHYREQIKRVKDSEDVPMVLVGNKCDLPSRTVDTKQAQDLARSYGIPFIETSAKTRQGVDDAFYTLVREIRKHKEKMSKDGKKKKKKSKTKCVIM
Procedure, shortened: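 HiBiT-tagged KRAS G12V cells treated 24 h with compound in a 3-fold, 10-point series (0.3 mM DMSO stock); lytic HiBiT reagent with LgBiT added after 15 min room-temperature equilibration. Degradation calculated against 0.1% DMSO high control.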

[2] = target: T2, KRAS (Homo sapiens, UniProt P01116); assay: KRASamp MSD assay; conditions: KE39 (KRAS amplified) cells, treated with test compounds for 24 hr, MSD readout of KRAS degradation
T2 construct: endogenous in cells; host or cells: KE39 (KRAS amplified) cells
T2 sequence (P01116 1-188 isoform P01116-2): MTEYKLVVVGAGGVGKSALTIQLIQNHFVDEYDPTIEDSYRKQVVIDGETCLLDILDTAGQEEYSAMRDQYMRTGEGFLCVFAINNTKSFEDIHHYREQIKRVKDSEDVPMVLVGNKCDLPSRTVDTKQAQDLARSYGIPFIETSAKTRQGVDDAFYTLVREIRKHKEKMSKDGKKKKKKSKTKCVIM
Procedure, shortened: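 KRAS-amplified KE39 cells treated with compound for 24 hr, then lysed in RIPA buffer with protease/phosphatase inhibitors. KRAS protein measured by MSD sandwich immunoassay against a recombinant WT KRAS standard curve; DC50 derived from curve fitting of degradation.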

[3] = target: T3, KRAS G12D (Homo sapiens, UniProt P01116, G12D); assay: KRAS G12D HiBit assay; conditions: AsPc-1-KRAS (G12D)-HiBit-KI cell, compound treatment for 24 hours, absolute DC50
T3 construct: AsPc-1-KRAS (G12D)-HiBit-KI cell (Pharmaron); host or cells: AsPc-1-KRAS (G12D)-HiBit-KI cells (HiBiT knock-in at the endogenous KRAS locus)
T3 sequence (P01116 1-188 isoform P01116-2 G12D): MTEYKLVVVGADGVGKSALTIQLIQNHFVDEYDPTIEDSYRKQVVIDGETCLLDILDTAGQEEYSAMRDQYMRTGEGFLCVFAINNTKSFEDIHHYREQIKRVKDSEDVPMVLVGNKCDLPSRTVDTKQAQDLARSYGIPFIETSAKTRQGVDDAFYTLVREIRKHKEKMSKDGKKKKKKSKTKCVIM
Procedure, shortened: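 Cells were treated for 24 h with compounds in a 3-fold, 10-point dilution series from a 0.3 mM DMSO stock, then equilibrated 15 min at room temperature. KRAS G12D HiBiT levels were read by luminescence after lytic Nano-Glo HiBiT reagent with LgBiT; inhibition calculated relative to 0.1% DMSO high control.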

[4] = numeric bounds given in place of class symbols

| DC50 [1] | DC50 [2] | DC50 ([3]; class symbols) | DC50 [3, 4] | SMILES |
| --- | --- | --- | --- | --- |
| > 100 nM | 1 to 10 nM | < 100 nM |  | CCc1c(F)ccc2cc(O)cc(-c3ncc4c(N5CCC[C@@](C)(O)C5)nc(OC[C@@]56CCCN5[C@H](CN5CCC7(CC5)CC(N5CCC(c8ccc9c(c8)n(C)c(=O)n9C8CCC(=O)NC8=O)CC5)C7)CC6)nc4c3F)c12 (stereo partly drawn) [Compound 471, 3-(5-(1-(7-(((3S,7aS)-7a-(((7-(8-Ethyl-7-fluoro-3-hydroxynaphthalen-1-yl)-8-fluoro-4-((R)-3-hydroxy-3-methylpiperidin-1-yl)pyrido[4,3-d]pyrimidin-2-yl)oxy)methyl)hexahydro-1H-pyrrolizin-3-yl)methyl)-7-azaspiro[3.5]nonan-2-yl)piperidin-4-yl)-3-methyl-2-oxo-2,3-dihydro-1H-benzo[d]imidazol-1-yl) piperidine-2,6-dione] |
| 10 to 100 nM | 1 to 10 nM | < 100 nM |  | CCc1c(F)ccc2cc(O)cc(-c3ncc4c(N5CCC[C@@](C)(O)C5)nc(OC[C@]56CCCN5[C@H](CCCN5CCC(c7ccc8c(c7)n(C)c(=O)n8C7CCC(=O)NC7=O)CC5)CC6)nc4c3F)c12 (stereo partly drawn) [Compound 473, 3-(5-(1-(3-((3R,7aR)-7a-(((7-(8-Ethyl-7-fluoro-3-hydroxynaphthalen-1-yl)-8-fluoro-4-((R)-3-hydroxy-3-methylpiperidin-1-yl)pyrido[4,3-d]pyrimidin-2-yl)oxy)methyl)hexahydro-1H-pyrrolizin-3-yl)propyl)piperidin-4-yl)-3-methyl-2-oxo-2,3-dihydro-1H-benzo[d]imidazol-1-yl) piperidine-2,6-dione] |
| < 10 nM | < 1 nM | < 100 nM |  | Cn1c(=O)n(C2CCC(=O)NC2=O)c2ccc(C3CCN(C4CC5(CCN(C(=O)OC[C@@H]6CC[C@]7(COc8nc(N9CCC[C@@](C)(O)C9)c9cnc(-c%10cc(O)cc%11ccc(F)cc%10%11)cc9n8)CCCN67)CC5)C4)CC3)cc21 (stereo partly drawn) [Compound 474, ((3S,7aS)-7a-(((7-(7-fluoro-3-hydroxynaphthalen-1-yl)-4-((R)-3-hydroxy-3-methylpiperidin-1-yl)pyrido[4,3-d]pyrimidin-2-yl)oxy)methyl)hexahydro-1H-pyrrolizin-3-yl)methyl 2-(4-(1-(2,6-dioxopiperidin-3-yl)-3-methyl-2-oxo-2,3-dihydro-1H-benzo[d]imidazol-5-yl)piperidin-1-yl)-7-azaspiro[3.5]nonane-7-carboxylate] |
| < 10 nM | 1 to 10 nM | < 100 nM |  | CCc1c(F)ccc2cc(O)cc(-c3ncc4c(N5CCC[C@@H](N)C5)nc(OC[C@@]56CCCN5[C@H](COC(=O)N5CCC7(CC5)CC(N5CCC(c8ccc9c(c8)n(C)c(=O)n9C8CCC(=O)NC8=O)CC5)C7)CC6)nc4c3F)c12 (stereo partly drawn) [Compound 476, ((3S,7aS)-7a-(((4-((R)-3-aminopiperidin-1-yl)-7-(8-ethyl-7-fluoro-3-hydroxynaphthalen-1-yl)-8-fluoropyrido[4,3-d]pyrimidin-2-yl)oxy)methyl)hexahydro-1H-pyrrolizin-3-yl)methyl 2-(4-(1-(2,6-dioxopiperidin-3-yl)-3-methyl-2-oxo-2,3-dihydro-1H-benzo[d]imidazol-5-yl)piperidin-1-yl)-7-azaspiro[3.5]nonane-7-carboxylate] |
| > 100 nM | ≥ 10 nM |  | > 100 nM | CCc1c(F)ccc2cc(O)cc(-c3ncc4c(N5CCC[C@H](N)C5)nc(OC[C@@]56CCCN5[C@H](COC(=O)N5CCC7(CC5)CC(N5CCC(c8ccc9c(c8)n(C)c(=O)n9C8CCC(=O)NC8=O)CC5)C7)CC6)nc4c3F)c12 (stereo partly drawn) [Compound 477, ((3S,7aS)-7a-(((4-((S)-3-aminopiperidin-1-yl)-7-(8-ethyl-7-fluoro-3-hydroxynaphthalen-1-yl)-8-fluoropyrido[4,3-d]pyrimidin-2-yl)oxy)methyl)hexahydro-1H-pyrrolizin-3-yl)methyl 2-(4-(1-(2,6-dioxopiperidin-3-yl)-3-methyl-2-oxo-2,3-dihydro-1H-benzo[d]imidazol-5-yl)piperidin-1-yl)-7-azaspiro[3.5]nonane-7-carboxylate] |
| < 10 nM | < 1 nM | < 100 nM |  | CCc1c(F)ccc2cc(O)cc(-c3ncc4c(N5CCC[C@](C)(N)C5)nc(OC[C@@]56CCCN5[C@H](COC(=O)N5CCC7(CC5)CC(N5CCC(c8ccc9c(c8)n(C)c(=O)n9C8CCC(=O)NC8=O)CC5)C7)CC6)nc4c3F)c12 (stereo partly drawn) [Compound 478, ((3S,7aS)-7a-(((4-((S)-3-amino-3-methylpiperidin-1-yl)-7-(8-ethyl-7-fluoro-3-hydroxynaphthalen-1-yl)-8-fluoropyrido[4,3-d]pyrimidin-2-yl)oxy)methyl)hexahydro-1H-pyrrolizin-3-yl)methyl 2-(4-(1-(2,6-dioxopiperidin-3-yl)-3-methyl-2-oxo-2,3-dihydro-1H-benzo[d]imidazol-5-yl)piperidin-1-yl)-7-azaspiro[3.5]nonane-7-carboxylate] |
| > 100 nM | ≥ 10 nM |  | > 100 nM | CCc1c(F)ccc2cc(O)cc(-c3ncc4c(N5CCC[C@@](C)(N)C5)nc(OC[C@@]56CCCN5[C@H](COC(=O)N5CCC7(CC5)CC(N5CCC(c8ccc9c(c8)n(C)c(=O)n9C8CCC(=O)NC8=O)CC5)C7)CC6)nc4c3F)c12 (stereo partly drawn) [Compound 479, ((3S,7aS)-7a-(((4-((R)-3-amino-3-methylpiperidin-1-yl)-7-(8-ethyl-7-fluoro-3-hydroxynaphthalen-1-yl)-8-fluoropyrido[4,3-d]pyrimidin-2-yl)oxy)methyl)hexahydro-1H-pyrrolizin-3-yl)methyl 2-(4-(1-(2,6-dioxopiperidin-3-yl)-3-methyl-2-oxo-2,3-dihydro-1H-benzo[d]imidazol-5-yl)piperidin-1-yl)-7-azaspiro[3.5]nonane-7-carboxylate] |
| 10 to 100 nM | ≥ 10 nM | < 100 nM |  | CCc1c(F)ccc2cc(O)cc(-c3ncc4c(N5CCC[C@@](C)(O)C5)nc(OC[C@@]56CCCN5[C@H](CNC(=O)c5ccc(CN7CCC(c8ccc9c(c8)n(C)c(=O)n9C8CCC(=O)NC8=O)CC7)cc5)CC6)nc4c3F)c12 (stereo partly drawn) [Compound 484, 4-((4-(1-(2,6-dioxopiperidin-3-yl)-3-methyl-2-oxo-2,3-dihydro-1H-benzo[d]imidazol-5-yl)piperidin-1-yl)methyl)-N-(((3S,7aS)-7a-(((7-(8-ethyl-7-fluoro-3-hydroxynaphthalen-1-yl)-8-fluoro-4-((R)-3-hydroxy-3-methylpiperidin-1-yl)pyrido[4,3-d]pyrimidin-2-yl)oxy)methyl)hexahydro-1H-pyrrolizin-3-yl)methyl)benzamide] |
| < 10 nM | < 1 nM | < 100 nM |  | CCc1c(F)ccc2cc(O)cc(-c3ncc4c(N5CCCOCC5)nc(OC[C@@]56CCCN5[C@H](COC(=O)N5CCC7(CC5)CC(N5CCC(c8ccc9c(c8)n(C)c(=O)n9C8CCC(=O)NC8=O)CC5)C7)CC6)nc4c3F)c12 (stereo partly drawn) [Compound 489, ((3S,7aS)-7a-(((7-(8-ethyl-7-fluoro-3-hydroxynaphthalen-1-yl)-8-fluoro-4-(1,4-oxazepan-4-yl)pyrido[4,3-d]pyrimidin-2-yl)oxy)methyl)hexahydro-1H-pyrrolizin-3-yl)methyl 2-(4-(1-(2,6-dioxopiperidin-3-yl)-3-methyl-2-oxo-2,3-dihydro-1H-benzo[d]imidazol-5-yl)piperidin-1-yl)-7-azaspiro[3.5]nonane-7-carboxylate] |
| < 10 nM | < 1 nM | < 100 nM |  | CCc1c(F)ccc2cc(O)cc(-c3ncc4c(N5CCC[C@@](C)(O)C5)nc(OC[C@@]56CCCN5[C@H](COC(=O)N5CCC(C#CC7CCN(c8ccc9c(c8)n(C)c(=O)n9C8CCC(=O)NC8=O)CC7)CC5)CC6)nc4c3F)c12 (stereo partly drawn) [Compound 500, [(3S,7aS)-7a-({[7-(8-ethyl-7-fluoro-3-hydroxynaphthalen-1-yl)-8-fluoro-4-[(3R)-3-hydroxy-3-methylpiperidin-1-yl]pyrido[4,3-d]pyrimidin-2-yl]oxy}methyl)-hexahydropyrrolizin-3-yl]methyl 4-(2-{1-[1-(2,6-dioxopiperidin-3-yl)-3-methyl-2-oxo-1,3-benzodiazol-5-yl]piperidin-4-yl}ethynyl) piperidine-1-carboxylate] |
